Data from the NIST ThermoML archive (doi:10.1021/je030226s).

Columns and labels:
[1] = xn = mol fraction of the nth substance listed; settings: 101.32 kPa, Liquid
[2] = refractive index (Na D-line) (dimensionless); xn = mol fraction of the nth substance listed; settings: 101.32 kPa, Liquid

CCCO [propan-1-ol] + CCCCCl
x1 = 1
Settings | mass density, 288.15 K [kg/m3] | mass density, 298.15 K [kg/m3] | mass density, 308.15 K [kg/m3] | refractive index, 288.15 K | refractive index, 298.15 K | refractive index, 308.15 K | viscosity, 288.15 K [mPa·s] | viscosity, 298.15 K [mPa·s] | viscosity, 308.15 K [mPa·s]
[1] | 807.6 | 799.6 | 791.5 | – | – | – | 2.504 | 1.958 | 1.548
[2] | – | – | – | 1.3869 | 1.3829 | 1.3789 | – | – | –

CCCCO [butan-1-ol] + CCCCCl
x1 = 1
Settings | mass density, 288.15 K [kg/m3] | mass density, 298.15 K [kg/m3] | mass density, 308.15 K [kg/m3] | refractive index, 288.15 K | refractive index, 298.15 K | refractive index, 308.15 K | viscosity, 288.15 K [mPa·s] | viscosity, 298.15 K [mPa·s] | viscosity, 308.15 K [mPa·s]
[1] | 813.5 | 805.9 | 798.2 | – | – | – | 3.394 | 2.598 | 2.019
[2] | – | – | – | 1.401 | 1.3972 | 1.3932 | – | – | –

CCCCCl [1-chlorobutane] + CCCO
Settings | mass density, 288.15 K [kg/m3] | mass density, 298.15 K [kg/m3] | mass density, 308.15 K [kg/m3] | refractive index, 288.15 K | refractive index, 298.15 K | refractive index, 308.15 K | viscosity, 288.15 K [mPa·s] | viscosity, 298.15 K [mPa·s] | viscosity, 308.15 K [mPa·s]
[1], x2 = 0 | 892.2 | 881 | 869.7 | – | – | – | 0.472 | 0.423 | 0.382
[1], x2 = 0.05 | 888.3 | 877.2 | 866 | – | – | – | 0.473 | 0.426 | 0.384
[1], x2 = 0.1 | 884.9 | 873.8 | 862.6 | – | – | – | 0.495 | 0.44 | 0.395
[1], x2 = 0.2 | 878.2 | 867.3 | 856.2 | – | – | – | 0.525 | 0.461 | 0.409
[1], x2 = 0.3 | 871.2 | 860.5 | 849.7 | – | – | – | 0.587 | 0.511 | 0.447
[1], x2 = 0.4 | 864 | 853.5 | 842.9 | – | – | – | 0.672 | 0.576 | 0.498
[1], x2 = 0.5 | 856.3 | 846.1 | 835.8 | – | – | – | 0.795 | 0.67 | 0.572
[1], x2 = 0.6 | 848.1 | 838.3 | 828.3 | – | – | – | 0.965 | 0.802 | 0.673
[1], x2 = 0.7 | 839.2 | 829.8 | 820.3 | – | – | – | 1.202 | 0.977 | 0.804
[1], x2 = 0.8 | 829.6 | 820.7 | 811.5 | – | – | – | 1.503 | 1.206 | 0.989
[1], x2 = 0.9 | 819.2 | 810.7 | 802 | – | – | – | 1.94 | 1.531 | 1.229
[1], x2 = 0.95 | 813.5 | 805.3 | 796.9 | – | – | – | 2.2 | 1.729 | 1.375
[2], x2 = 0 | – | – | – | 1.4045 | 1.3993 | 1.3941 | – | – | –
[2], x2 = 0.05 | – | – | – | 1.4036 | 1.3984 | 1.3931 | – | – | –
[2], x2 = 0.1 | – | – | – | 1.4028 | 1.3976 | 1.3923 | – | – | –
[2], x2 = 0.2 | – | – | – | 1.4013 | 1.3962 | 1.3909 | – | – | –
[2], x2 = 0.3 | – | – | – | 1.3998 | 1.3948 | 1.3895 | – | – | –
[2], x2 = 0.4 | – | – | – | 1.3984 | 1.3934 | 1.3882 | – | – | –
[2], x2 = 0.5 | – | – | – | 1.3968 | 1.3919 | 1.3869 | – | – | –
[2], x2 = 0.6 | – | – | – | 1.3952 | 1.3904 | 1.3855 | – | – | –
[2], x2 = 0.7 | – | – | – | 1.3934 | 1.3888 | 1.384 | – | – | –
[2], x2 = 0.8 | – | – | – | 1.3914 | 1.387 | 1.3824 | – | – | –
[2], x2 = 0.9 | – | – | – | 1.3892 | 1.385 | 1.3807 | – | – | –
[2], x2 = 0.95 | – | – | – | 1.3881 | 1.384 | 1.3798 | – | – | –

CO [methanol] + CCCCCl
x1 = 1
Settings | mass density, 288.15 K [kg/m3] | mass density, 298.15 K [kg/m3] | mass density, 308.15 K [kg/m3] | refractive index, 288.15 K | refractive index, 298.15 K | refractive index, 308.15 K | viscosity, 288.15 K [mPa·s] | viscosity, 298.15 K [mPa·s] | viscosity, 308.15 K [mPa·s]
[1] | 796.1 | 786.6 | 777.2 | – | – | – | 0.627 | 0.543 | 0.473
[2] | – | – | – | 1.3303 | 1.3275 | 1.3254 | – | – | –

CCCCCl [1-chlorobutane] + CCO
Settings | mass density, 288.15 K [kg/m3] | mass density, 298.15 K [kg/m3] | mass density, 308.15 K [kg/m3] | refractive index, 288.15 K | refractive index, 298.15 K | refractive index, 308.15 K | viscosity, 288.15 K [mPa·s] | viscosity, 298.15 K [mPa·s] | viscosity, 308.15 K [mPa·s]
[1], x2 = 0 | 892.2 | 881 | 869.7 | – | – | – | 0.472 | 0.423 | 0.382
[1], x2 = 0.05 | 888.5 | 877.3 | 866 | – | – | – | 0.475 | 0.424 | 0.384
[1], x2 = 0.1 | 885.3 | 874.2 | 862.8 | – | – | – | 0.479 | 0.428 | 0.388
[1], x2 = 0.2 | 878.7 | 867.7 | 856.4 | – | – | – | 0.5 | 0.442 | 0.395
[1], x2 = 0.3 | 871.7 | 860.8 | 849.7 | – | – | – | 0.529 | 0.465 | 0.41
[1], x2 = 0.4 | 864.1 | 853.4 | 842.4 | – | – | – | 0.566 | 0.493 | 0.43
[1], x2 = 0.5 | 855.7 | 845.2 | 834.5 | – | – | – | 0.63 | 0.543 | 0.469
[1], x2 = 0.6 | 846.4 | 836.1 | 825.7 | – | – | – | 0.708 | 0.601 | 0.515
[1], x2 = 0.7 | 835.8 | 825.9 | 815.8 | – | – | – | 0.807 | 0.68 | 0.581
[1], x2 = 0.8 | 823.9 | 814.4 | 804.7 | – | – | – | 0.932 | 0.781 | 0.67
[1], x2 = 0.9 | 810 | 800.9 | 791.7 | – | – | – | 1.099 | 0.903 | 0.765
[1], x2 = 0.95 | 802.2 | 793.4 | 784.5 | – | – | – | 1.209 | 0.994 | 0.839
[2], x2 = 0 | – | – | – | 1.4045 | 1.3993 | 1.3941 | – | – | –
[2], x2 = 0.05 | – | – | – | 1.403 | 1.3978 | 1.3925 | – | – | –
[2], x2 = 0.1 | – | – | – | 1.4016 | 1.3964 | 1.3912 | – | – | –
[2], x2 = 0.2 | – | – | – | 1.3988 | 1.3937 | 1.3885 | – | – | –
[2], x2 = 0.3 | – | – | – | 1.3958 | 1.3907 | 1.3855 | – | – | –
[2], x2 = 0.4 | – | – | – | 1.3925 | 1.3875 | 1.3823 | – | – | –
[2], x2 = 0.5 | – | – | – | 1.389 | 1.384 | 1.3788 | – | – | –
[2], x2 = 0.6 | – | – | – | 1.3851 | 1.3802 | 1.375 | – | – | –
[2], x2 = 0.7 | – | – | – | 1.3807 | 1.3759 | 1.3708 | – | – | –
[2], x2 = 0.8 | – | – | – | 1.3756 | 1.3711 | 1.3661 | – | – | –
[2], x2 = 0.9 | – | – | – | 1.3697 | 1.3653 | 1.3609 | – | – | –
[2], x2 = 0.95 | – | – | – | 1.3665 | 1.3624 | 1.3581 | – | – | –
